Data set [1] has as its target T1, human recombinant 11β-HSD2 (Homo sapiens, UniProt P80365).
T1 sequence (P80365 1-405): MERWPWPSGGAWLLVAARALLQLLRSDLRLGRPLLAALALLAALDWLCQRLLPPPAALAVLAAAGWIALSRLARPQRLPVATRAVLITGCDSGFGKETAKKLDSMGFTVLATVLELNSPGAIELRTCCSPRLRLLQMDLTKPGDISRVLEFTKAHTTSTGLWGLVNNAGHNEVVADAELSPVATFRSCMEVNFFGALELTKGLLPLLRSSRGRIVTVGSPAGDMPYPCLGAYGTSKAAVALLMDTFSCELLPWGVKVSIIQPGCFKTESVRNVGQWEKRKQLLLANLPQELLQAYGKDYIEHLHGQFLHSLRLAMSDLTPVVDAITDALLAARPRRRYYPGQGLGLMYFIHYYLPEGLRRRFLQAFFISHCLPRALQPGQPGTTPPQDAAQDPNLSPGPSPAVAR
Kind of data set: Measuring test for human 11β-HSD2 inhibitory activity (HTRF cortisol detection). The conditions noted are these: human recombinant 11β-HSD2, 200 nM cortisol, 200 μM NAD, pH 8.0, 37° C. 2 h. It is filed as biochemical. How it is done: (§1) Test Method 1: Measuring Test for Human 11β-HSD1 and 11β-HSD2 Inhibitory Activities
Measurement of the 11β-HSD2 inhibitory activity was carried out in the same manner as in the 11β-HSD1 inhibitory activity measurement, except for the enzyme reaction conditions. The enzyme reaction was carried out by adding the compound to be tested with various concentrations to a reaction liquid consisting of 40 mM Tris-HCl buffer (pH 8.0), 200 nM cortisol, 200 μM nicotinamide adenine dinucleotide (NAD) and human recombinant 11β-HSD2, and then incubating the same at 37° C. for 2 hours (10 μl/well).
(§2) The measured result was calculated by averaging the values of 3 wells of the same condition. The ratio when DMSO was added instead of the compound to be tested was regarded as 0% and the ratio when 11β-HSD1 or 11β-HSD2 was not added was regarded as 100%, thereby calculating 50% inhibition concentration of the compound to be tested as IC50 of the compound inhibitory action.
(In general: TR-FRET usually uses a lanthanide donor and a delayed reading to cut background.)

Data set [2] addresses T2, human recombinant 11β-HSD1 (Homo sapiens, UniProt P28845).
T2 construct: made in house
Kind of data set: Measuring test for human 11β-HSD1 inhibitory activity (HTRF cortisol detection). The conditions noted are these: human recombinant 11β-HSD1, 200 nM cortisone, 40 μM NADPH, pH 6.6, room temperature 1 h. Format: biochemical. How it is done: as §1
The procedure for measuring 11β-HSD1-inhibitory action was as follows. In this connection, the enzyme reaction and measurement were carried out using a 384-well plate. The enzyme was prepared in accordance with a document (Walker E. A. et al., Journal of Biological Chemistry, 2001, vol. 276, p. 21343-21350). The reaction was carried out by adding the compound to be tested with various concentrations to a reaction liquid consisting of 10 mM phosphate buffer (pH 6.6), 200 nM cortisone, 40 μM reduced nicotinamide adenine dinucleotide phosphate (NADPH) and human recombinant 11β-HSD1, and then incubating the same at room temperature for one hour (10 μl/well). The compound to be tested was prepared by dissolving in dimethyl sulfoxide (DMSO) to a DMSO concentration of 1% in the reaction liquid. After the enzyme reaction was completed, the enzyme inhibitory action was measured by detecting cortisol using a homogeneous time-resolved fluorescence method (HTRF). Each of the XL-665-labeled cortisol containing 400 μM carbenoxolone and cryptate-labeled cortisol antibody (CIS bio international Co., Ltd.) was added in 5 μl/well portions and incubated at room temperature for 2 hours, and then the fluorescence intensity was measured using a fluorophotometer (trade name: Discovery, Perkin Elmer Inc.), and the enzyme inhibitory action was calculated from the fluorescence intensity ratio at two wavelengths (665 nm/620 nm).
as §2

A further data set deals with male ddY mice. Description: Scopolamine-induced impairment of spontaneous alternation behavior test (Y-maze). Format: in vivo, mouse. The note with it: oral, scopolamine 0.5 mg/kg i.p., Y-maze 8 minutes. As to the method:
Test Method 5: Scopolamine-Induced Impairment of Spontaneous Alternation Behavior Test
The compound to be tested was orally administered to male ddY mice of 5 to 7 weeks of age and scopolamine was intraperitoneally administered at 0.5 mg/kg after 10 minutes. After more 20 minutes, the animals were put in a Y-maze having arms of equivalent lengths into three directions and were allowed to freely search for 8 minutes. In this time, spontaneous alternation behavior to the arm (consecutive approach three times to different arms) was counted and a spontaneous alternation rate (spontaneous alternation behavior÷(approach number−2)×100) was calculated to evaluate pharmaceutical efficacy.

Another data set concerns ob/ob mice. Description: Ob/ob mouse blood-glucose lowering test. It is filed as in vivo. The conditions noted are these: bid, oral, 14 days, male ob/ob mice, 12 hours after final administration. As to the method:
Test Method 2: Ob/Ob Mouse Blood-Glucose Lowering Test
A compound liquid was prepared using 6% 2-hydroxypropyl-β-cyclodextrin as a solvent. Using 7 weeks-old male ob/ob mice (blood-glucose level of 300 mg/dL or more), blood-glucose levels were measured under non-fasting conditions and then the mice were divided into groups so that the blood-glucose levels became uniform among the groups. The compound to be tested was orally administered twice per day repeatedly for 14 days (3 or 10 mg/kg, bid) and a basal blood-glucose level was measured 12 hours after final administration (n=6 to 10). Similarly, the compound to be tested was orally administered twice per day repeatedly for […] (3 or 10 mg/kg, bid) and a blood glucose at fasting was measured under fasting conditions 12 hours after final administration. The blood-glucose level was measured by carrying out colorimetric determination of the amount of glucose (mg/dl) in heparin blood plasma obtained by collecting blood in a heparin-coated glass capillary and subsequently centrifuging the same.

Data set [3] relates to CYP3A (human CYP3A gene promoter, via PXR). Description: Human CYP3A enzyme inducibility test (PXR/CYP3A promoter luciferase reporter in HepG2). It is filed as cell-based. The note with it: HepG2 cells, 16 hours after addition of the drug. As to the method:
Test Method 6: Human CYP3A Enzyme Inducibility Test
3E+6 (n) Human hepatoma-derived cell lines, HepG2, were seeded on a 10 cm collagen-coated dish. Human PXR expression vectors, luciferase reporter vector in which a human CYP3A gene promoter region is inserted, and renilla expression vector as a control were transiently introduced 6 hours after cell seeding. The entire cells were further seeded on 384-well plates 16 hours after introduction, and a drug dissolved in DMSO was added thereto 6 hours after seeding. Luciferase activity of the reporter gene and control gene were measured 16 hours after addition of the drug, a value corrected by a control was regarded as an active value, and the value obtained by dividing by an activity value in which no drug was added was calculated as a fold induction.
Background: Reporter assays use an easily measured gene product as a stand-in for the process of interest.

Counter-ions that a name gives are not always drawn.

Data on 25 compounds can be found in patent US8377923B2, “Triazole derivative or salt thereof” (Astellas Pharma Inc., priority 2008, dated 2013).

The term IC50 denotes the concentration that inhibits the measured activity by half. The term fold induction denotes the signal under treatment as a multiple of the control signal.

T2 sequence (P28845 whole entry): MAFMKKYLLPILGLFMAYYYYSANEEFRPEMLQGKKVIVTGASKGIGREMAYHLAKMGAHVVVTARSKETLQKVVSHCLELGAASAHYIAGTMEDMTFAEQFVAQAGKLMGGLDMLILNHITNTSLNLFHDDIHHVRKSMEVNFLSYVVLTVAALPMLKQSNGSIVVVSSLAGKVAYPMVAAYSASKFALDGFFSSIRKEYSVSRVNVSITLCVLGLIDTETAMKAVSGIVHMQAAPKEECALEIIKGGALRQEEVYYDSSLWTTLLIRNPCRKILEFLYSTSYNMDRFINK

As to `Cn1c(-c2ccccc2C(F)(F)F)nnc1C(C)(C)Oc1ccc(Cl)cc1` [Example 64, 3-[1-(4-chlorophenoxy)-1-methylethyl]-4-methyl-5-[2-(trifluoromethyl)phenyl]-4H-1,2,4-triazole monohydrochloride], the values for the IC50 in data set [1] and in data set [2] were > 3 µM and 0.003 µM, respectively. In addition, the “Minimal effective dose for spontaneous alternation rate” value (“Minimal effective dose” below) with male ddY mice was 0.001 mg/kg.

For the compound `CC(C)(Oc1cc(F)c(F)cc1F)c1nnc(-c2ccc(C(N)=O)cc2F)n1C1CC1` [Example 525], the figures for the IC50 in data set [1] and in data set [2] were > 10 µM and 0.029 µM, respectively.

Turning to `C[C@H](Oc1ccc(C(N)=O)cc1Br)c1nnc(-c2ccccc2C(F)(F)F)n1C` [Example 127], the IC50 in data set [1] was > 3 µM; in data set [2], 0.0087 µM.

`Cn1c(-c2ccc(F)cc2Cl)nnc1C(C)(C)Oc1c(F)cc(F)cc1F` [Example 65, 3-(2-chloro-4-fluorophenyl)-4-methyl-5-[1-methyl-1-(2,4,6-trifluorophenoxy)ethyl]-4H-1,2,4-triazole monohydrochloride]: the results for the IC50 in data set [1] and in data set [2] were > 3 µM and 0.0053 µM, respectively. Also, the “Minimal effective dose” value in the data set on male ddY mice was 0.01 mg/kg.

On to `CCn1c(N2CCc3[nH]ncc3C2)nnc1C(C)(C)Oc1c(F)cc(F)cc1F` [Example 87, 5-{4-ethyl-5-[1-methyl-1-(2,4,6-trifluorophenoxy)ethyl]-4H-1,2,4-triazol-3-yl}-4,5,6,7-tetrahydro-1H-pyrazolo[4,3-c]pyridine dihydrochloride], for which the IC50 was > 10 µM in data set [1] and 0.013 µM in data set [2].

As for `Cn1c(-c2ccc(F)c3ccccc23)nnc1C(C)(C)Oc1c(F)cc(F)cc1F` [Example 373], the IC50 is > 100 µM in data set [1] and 0.1 µM in data set [2].

Turning to `CC(C)(Oc1ccc(F)cc1F)c1nnc(-c2ccc(C(N)=O)cc2F)n1C1CC1` [Example 355], the IC50 was > 10 µM in data set [1] and 0.027 µM in data set [2].

As for `Cn1cc(-c2nnc(C(C)(C)Oc3c(F)cc(F)cc3F)n2C2CC2)c(Cl)n1` [Example 545], the IC50 was > 10 µM in data set [1] and 0.073 µM in data set [2].

Turning to `CC(C)n1c(-c2ccc(C(N)=O)cc2)nnc1C(C)(C)Oc1c(F)cc(F)cc1F` [Example 531], the IC50 in data set [1] is > 10 µM; in data set [2], 0.05 µM.

As for `CC(C)(Oc1c(F)cc(Cl)cc1F)c1nnc(-c2cc3c(cc2F)C(=O)NC3)n1C1CC1` [Example 580], the IC50 is > 3 µM in data set [1] and 0.01 µM in data set [2].

For the compound `CCn1c(-c2ccc3cn[nH]c3c2)nnc1C(C)(C)Oc1c(F)cc(Cl)cc1F` [Example 83, 6-{5-[1-(4-chloro-2,6-difluorophenoxy)-1-methylethyl]-4-ethyl-4H-1,2,4-triazol-3-yl}-1H-indazole], the figures for the IC50 in data set [1] and in data set [2] were > 10 µM and 0.023 µM, respectively.

For the compound `Cn1c(-c2ccc(C(N)=O)cc2Cl)nnc1C(C)(C)Oc1c(F)cc(Cl)cc1F` [Example 185], the IC50 in data set [1] was > 3 µM; in data set [2] it was 0.0029 µM.

Take `Cn1c(-c2ccccc2C(F)(F)F)nnc1C(C)(C)Oc1ccc(C(F)(F)F)cc1Cl` [Example 204]: the IC50 in data set [1] was > 10 µM; in data set [2], 0.12 µM. For the same compound, the “Basal blood-glucose lowering activity (%)” value with ob/ob mice (10 mg/kg) is on record as 29% (10 mg/kg).

On to `Cn1c(-c2ccc(C(N)=O)cc2F)nnc1C(C)(C)Oc1c(F)cc(Cl)cc1F` [Example 186], for which the IC50 was > 3 µM in data set [1] and 0.0033 µM in data set [2]. Moreover, the “Minimal effective dose” value in the data set on male ddY mice is listed as 0.03 mg/kg. The “Basal blood-glucose lowering activity (%)” value with ob/ob mice (3 mg/kg) is on record as 23% (3 mg/kg).

For `Cn1c(-c2sc(N)nc2C(F)(F)F)nnc1C(C)(C)Oc1c(F)cc(Cl)cc1F` [Example 587], the IC50 in data set [1] is > 3 µM; in data set [2], 0.013 µM.

For `Cn1c(-c2ccc(F)cc2Br)nnc1C(C)(C)Oc1ccc(Cl)cc1` [Example 215], the results for the IC50 in data set [1] and in data set [2] were > 10 µM and 0.012 µM, respectively. Besides, in the data set with male ddY mice, the “Minimal effective dose” value came out at 0.01 mg/kg.

In the case of `CC(C)n1c(-c2ccc(C(N)=O)cc2)nnc1C(C)(C)Oc1c(F)cccc1F` [Example 616], the figures for the IC50 in data set [1] and in data set [2] were > 10 µM and 0.02 µM, respectively.

For `Cn1c(-c2cc(Cl)ccc2Cl)nnc1C(C)(C)Oc1c(F)cc(F)cc1F` [Example 374], the figures for the IC50 in data set [1] and in data set [2] were > 30 µM and 0.05 µM, respectively.

On to `CCn1c(-c2ccc(C(N)=O)cc2)nnc1C(C)(C)Oc1c(F)cc(Cl)cc1F` [Example 509], for which the IC50 in data set [1] is > 10 µM; in data set [2], 0.021 µM. Further, in the data set on male ddY mice, the “Minimal effective dose” value is recorded as 0.01 mg/kg.

`CCn1c(-c2ccc3c(c2)CNC3=O)nnc1C(C)(C)Oc1c(F)cc(F)cc1F` [Example 518]: the IC50 in data set [1] was > 3 µM; in data set [2], 0.008 µM.

Consider `Cn1c(-c2ccncc2C(F)(F)F)nnc1C(C)(C)Oc1c(F)cc(Cl)cc1F` [Example 544], for which the IC50 in data set [1] is > 10 µM; in data set [2], 0.015 µM.

Take `Cn1c(-c2ccc(C(N)=O)cc2Cl)nnc1C(C)(C)Oc1c(F)cc(F)cc1F` [Example 175]: the IC50 was > 3 µM in data set [1] and 0.003 µM in data set [2]. Moreover, the “Basal blood-glucose lowering activity (%)” value in the data set with ob/ob mice (3 mg/kg) is reported as 20% (3 mg/kg). Also, in data set [3], the fold induction at 16 h, 3 µM worked out at 1.24.

With `CC(C)n1c(-c2ccc(C(N)=O)cc2)nnc1C(C)(C)Oc1c(F)cc(Cl)cc1F` [Example 535], the IC50 in data set [1] was > 10 µM; in data set [2], 0.054 µM. Further, the “Minimal effective dose” value in the data set with male ddY mice is recorded as 0.01 mg/kg.

`Cn1c(-c2ccccc2C(F)(F)F)nnc1C(C)(C)Oc1ccc(Cl)cc1-c1nnco1` [Example 69, 2-[5-chloro-2-(1-methyl-1-{4-methyl-5-[2-(trifluoromethyl)phenyl]-4H-1,2,4-triazol-3-yl}ethoxy)phenyl]-1,3,4-oxadiazole]: the IC50 in data set [1] was > 3 µM; in data set [2], 0.0055 µM. Besides, in the data set on ob/ob mice (10 mg/kg), the “Basal blood-glucose lowering activity (%)” value was 32% (10 mg/kg).

Turning to `Cn1c(-c2ccccc2C(F)(F)F)nnc1C(C)(C)Oc1ccc(Br)cn1` [Example 148], the IC50 is > 3 µM in data set [1] and 0.0046 µM in data set [2]. For the same compound, the “Minimal effective dose” value in the data set with male ddY mice turned out to be 0.03 mg/kg.
